Converted amounts (≈) assume the structure as drawn.
What was measured:
[1] = Kinetic solubility of compound […] using the charged aerosol detector (CAD) analysis; type: physicochemical; details: read-out: Kinetic_solubility
[2] = Permeability of compound by AMP assay; type: ADME; details: not told; read-out: permeability
[3] = Distribution coefficient, logD of the compound by chromatography; type: physicochemical; details: octanol/water
[4] = Solubility of the compound by CLND assay; type: physicochemical
[5] = Solubility of the compound in FaSSIF at pH 6.5 using crystalline form of sample incubated for 16 hrs by HPLC gradient analysis; type: physicochemical
[6] = Solubility of the compound in FaSSIF at pH 6.5 incubated for 16 hrs by HPLC gradient analysis; type: physicochemical; details: for solubility at 16 h: FaSSIF, pH 6.5; for solubility: simulated gi fluid, pH 6.5, 16 h
[7] = Intrinsic clearance in Wistar han rat hepatocytes measured per gram of tissue incubated for 60 mins by LC-MS/MS method; type: ADME, cell-based, Hepatocyte; details: 1 h
[8] = Intrinsic clearance in human hepatocytes measured per gram of tissue incubated for 120 mins by LC-MS/MS method; type: ADME, cell-based, Hepatocyte; details: 2 h
[9] = Intrinsic clearance in dog hepatocytes measured per gram of tissue by LC-MS/MS method; type: ADME, cell-based, Canis lupus familiaris, Hepatocyte
[10] = Blood clearance in male Wistar Han rat at 1 mg/kg, iv and 3 mg/kg, po measured up to 7 hrs by LC-MS/MS analysis; type: ADME, organism-based
[11] = Blood clearance in Beagle dog at 0.5 mg/kg, iv and 1 mg/kg, po measured up to 7 hrs by LC-MS/MS analysis; type: ADME, organism-based, Canis lupus familiaris
[12] = Volume of distribution at steady state in male Wistar Han rat at 1 mg/kg, iv and 3 mg/kg, po measured up to 7 hrs by LC-MS/MS analysis; type: ADME, organism-based; details: in vivo, read-out: Vdss
[13] = Volume of distribution at steady state in Beagle dog at 0.5 mg/kg, iv and 1 mg/kg, po measured up to 7 hrs by LC-MS/MS analysis; type: ADME, organism-based, Canis lupus familiaris; details: in vivo, read-out: Vdss
[14] = Half life in male Wistar Han rat at 1 mg/kg, iv and 3 mg/kg, po measured up to 7 hrs by LC-MS/MS analysis; type: ADME, organism-based; details: in vivo
[15] = Half life in Beagle dog at 0.5 mg/kg, iv and 1 mg/kg, po measured up to 7 hrs by LC-MS/MS analysis; type: ADME, organism-based, Canis lupus familiaris; details: in vivo
[16] = Oral bioavailability in male Wistar Han rat at 3 mg/kg measured up to 7 hrs by LC-MS/MS analysis; type: ADME, organism-based; details: in vivo
[17] = Oral bioavailability in Beagle dog at 1 mg/kg measured up to 7 hrs by LC-MS/MS analysis; type: ADME, organism-based, Canis lupus familiaris; details: in vivo

solubility kinetic [1] [µg/mL] | Papp [2] [×10⁻⁶ cm/s] | chromatographic logD [3] | solubility kinetic [4] [µg/mL] | solubility at 16 h [6] [µg/mL] | Compound | further results
≥ 63 | 7.3 | 4.1 | – | – | CNC(=O)c1cc(C(=O)N[C@H]2CC[C@H](O)CC2)c([C@@H](C)c2cccc(F)c2)o1 | –
– | 5.7 | 2.7 | ≥ 121 | – | CNC(=O)c1cc(C(=O)NC(C)CO)c([C@@H](C)c2ccccc2)o1 (stereo partly drawn) | –
– | 30.3 | 4.1 | ≥ 192 | – | CNC(=O)c1cc(C(=O)N[C@H]2CC[C@H](OC)CC2)c([C@@H](C)c2ccccc2)o1 | solubility thermodynamic at 16 h [5]: 141 µg/mL (≈ 367 µM)
≥ 118 | 15 | 3.5 | – | – | CNC(=O)c1cc(C(=O)N[C@H]2CC[C@H](O)CC2)c([C@@H](C)c2ccc(Cl)cc2)o1 | –
– | 6.1 | 3.2 | ≥ 291 | – | CNC(=O)c1cc(C(=O)N[C@H]2[C@@H]3C[C@@H](O)C[C@@H]32)n([C@@H](C)c2ccccc2)n1 | solubility thermodynamic at 16 h [5]: 101 µg/mL (≈ 274 µM)
– | – | 3.5 | – | – | CNC(=O)c1cc(C(=O)NC2CC2)cn([C@H](C)c2ccccc2)c1=O | –
– | – | 3.3 | – | 699 (≈ 2060 µM) | CNC(=O)c1cc(C(=O)NC2CC2)cn([C@@H](C)c2ccccc2)c1=O | –
≥ 113 | 4.4 | 2.9 | – | 868 (≈ 2170 µM) | CNC(=O)c1cc(C(=O)N[C@H]2CC[C@H](O)CC2)c([C@@H](C)c2cccc(OC)c2)o1 | –
≥ 245 | 10.8 | 3.4 | – | > 1000 | CNC(=O)c1cc(C(=O)N[C@H]2CC[C@H](O)CC2)c([C@@H](C)c2ccc(C)cc2)o1 | –
– | 12 | 2.8 | ≥ 132 | – | CNC(=O)c1cc(C(=O)NC(C)CO)n([C@@H](C)c2ccccc2)n1 (stereo partly drawn) | –
– | 42 | 3.5 | ≥ 148 | – | CCNC(=O)c1cc(C(=O)NC)oc1[C@@H](C)c1ccccc1 | solubility thermodynamic at 16 h [5]: 432 µg/mL (≈ 1440 µM)
– | 36 | 4.2 | ≥ 161 | – | CNC(=O)c1cc(C(=O)N[C@H]2CC[C@H](OC)CC2)n([C@@H](C)c2ccccc2)n1 | solubility thermodynamic at 16 h [5]: 355 µg/mL (≈ 923 µM); CLint [7]: 1.7 mL/min/g; CLint [8]: < 0.45 mL/min/g; CLint [9]: < 0.65 mL/min/g; clearance [10]: 32 mL/min/kg; clearance [11]: 6 mL/min/kg; Vd [12]: 2.4 L/kg; Vd [13]: 2.1 L/kg; half-life [14]: 1 h; half-life [15]: 4.1 h; bioavailability [16]: 80%; bioavailability [17]: 95%
– | 23 | 3.6 | – | – | CC[C@@H](c1ccccc1)n1nc(C(=O)NC)cc1C(=O)N[C@H]1[C@@H]2C[C@H](O)C[C@@H]21 | –
≥ 164 | 3.9 | 2.7 | – | > 1000 | CNC(=O)c1cc(C(=O)N[C@H]2CC[C@H](OC)CC2)n([C@@H](CO)c2ccccc2)n1 | –
≥ 242 | 7.8 | 3.1 | – | > 1000 | CNC(=O)c1cc(C(=O)N[C@H]2CC[C@H](O)CC2)c([C@@H](C)c2ccccc2Cl)o1 | –
7 (≈ 16 µM) | 28 | 4.1 | – | – | CNC(=O)c1cc(C(=O)N[C@H]2CC[C@H](O)CC2)n([C@@H](C)c2cccc(C(F)(F)F)c2)n1 | –
– | 27 | 3.6 | 31 (≈ 87 µM) | – | CNC(=O)c1cc(C(=O)NC2CCOCC2)n([C@@H](C)c2ccccc2)n1 | –
≥ 155 | > 8 | 3.1 | – | 285 (≈ 955 µM) | CNC(=O)c1cc(C(=O)NC2CC2)n(Cc2ccccc2)n1 | –
87 (≈ 483 µM) | 20 | 3.1 | – | 13 (≈ 72.1 µM) | CCC(=O)c1c[nH]c(C(=O)NC)c1 | –
– | 3.3 | 2.3 | ≥ 132 | – | CNC(=O)c1cc(C(=O)NCCO)c([C@@H](C)c2ccccc2)o1 | solubility thermodynamic at 16 h [5]: 925 µg/mL (≈ 2920 µM)
≥ 175 | 27 | 3.9 | – | – | CNC(=O)c1cc(C(=O)N[C@H]2CC[C@H](O)CC2)n([C@@H](C)c2ccc(C(F)(F)F)cc2)n1 | –

solubility kinetic [1] [µg/mL] | Papp [2] [×10⁻⁶ cm/s] | chromatographic logD [3] | solubility kinetic [4] [µg/mL] | solubility at 16 h [6] [µg/mL] | Compound | further results
≥ 165 | > 40 | 3.6 | ≥ 165 | – | CNC(=O)c1cc(C(=O)NC2CC2)n([C@@H](C)c2ccccc2)n1 | solubility [6]: 939 µg/mL (≈ 3010 µM)
≥ 180 | 11 | 3.4 | – | – | CNC(=O)c1cc(C(=O)N[C@H]2CC[C@H](O)CC2)n([C@@H](C)c2cccc(C)c2)n1 | –
≥ 168 | 33.3 | 3.7 | – | 327 (≈ 812 µM) | CNC(=O)c1cc(C(=O)N[C@H]2[C@@H]3C[C@H](O)C[C@@H]32)n([C@@H](C)c2cccc(Cl)c2)n1 | CLint [7]: 17.3 mL/min/g; CLint [8]: 10.8 mL/min/g; CLint [9]: 8.3 mL/min/g
– | 5.9 | 2.4 | ≥ 139 | – | CNC(=O)c1cc(C(=O)NCCO)n([C@@H](C)c2ccccc2)n1 | –
≥ 145 | 50 | 3.6 | ≥ 145 | – | CNC(=O)c1cc(C(=O)NC2CC2)c([C@@H](C)c2ccccc2)o1 | solubility [6]: 423 µg/mL (≈ 1350 µM)
– | 44 | 2.7 | ≥ 150 | – | CNC(=O)c1cc(C(=O)N[C@H]2[C@@H]3C[C@@H](OC)C[C@@H]32)n([C@@H](C)c2ccccc2)n1 | solubility thermodynamic at 16 h [5]: > 1000 µg/mL
≥ 182 | 10 | 3.9 | – | – | CNC(=O)c1cc(C(=O)N[C@H]2CC[C@H](O)CC2)n([C@@H](C)c2ccccc2Cl)n1 | –
≥ 172 | 8.5 | 3.3 | – | > 1000 | CNC(=O)c1cc(C(=O)N[C@H]2CC[C@H](O)CC2)c([C@@H](C)c2cccc(C)c2)o1 | –
≥ 179 | 15 | 3.5 | – | 408 (≈ 1010 µM) | CNC(=O)c1cc(C(=O)N[C@H]2CC[C@H](O)CC2)c([C@@H](C)c2cccc(Cl)c2)o1 | CLint [7]: 1.5 mL/min/g; CLint [8]: < 0.45 mL/min/g; CLint [9]: 0.71 mL/min/g; clearance [10]: 55 mL/min/kg; clearance [11]: 3.6 mL/min/kg; Vd [12]: 2.7 L/kg; Vd [13]: 0.9 L/kg; half-life [14]: 0.9 h; half-life [15]: 3.1 h; bioavailability [16]: 37%; bioavailability [17]: 62%
138 (≈ 359 µM) | 7 | – | – | > 1000 | CC[C@@H](c1ccccc1)n1nc(C(=O)NC)cc1C(=O)N[C@H]1CC[C@H](O)CC1 | –
– | 48 | 4.2 | ≥ 127 | – | CCCNC(=O)c1cc(C(=O)NC)oc1[C@@H](C)c1ccccc1 | –
≥ 143 | 23.5 | 3.7 | – | 196 (≈ 484 µM) | CNC(=O)c1cc(C(=O)N[C@H]2CC[C@H](O)CC2)n([C@@H](C)c2cccc(Cl)c2)n1 | –
– | 20 | 4.1 | ≥ 131 | – | CNC(=O)c1cc(C(=O)N[C@H]2[C@@H]3COC[C@@H]32)c([C@@H](C)c2ccccc2)o1 | solubility thermodynamic at 16 h [5]: 980 µg/mL (≈ 2770 µM); CLint [7]: < 0.8 mL/min/g; CLint [8]: < 0.45 mL/min/g; CLint [9]: < 0.65 mL/min/g; clearance [10]: 55 mL/min/kg; clearance [11]: 2.9 mL/min/kg; Vd [12]: 2.7 L/kg; Vd [13]: 1.1 L/kg; half-life [14]: 0.7 h; half-life [15]: 5 h; bioavailability [16]: 100%; bioavailability [17]: 100%
≥ 112 | > 0.4 | 3.6 | – | – | CNC(=O)c1cc(C(=O)NC2CC2)c([C@H](C)c2ccccc2)o1 | –
≥ 132 | 18 | 3.7 | – | 102 (≈ 252 µM) | CNC(=O)c1cc(C(=O)N[C@H]2CC[C@H](O)CC2)n([C@@H](C)c2ccc(Cl)cc2)n1 | –
– | 28 | 3 | ≥ 88 | – | CNC(=O)c1cc(C(=O)NC)n([C@@H](C)c2ccccc2)n1 | –
– | 56 | 4.4 | ≥ 132 | – | CCCNC(=O)c1cc(C(=O)NC)nn1[C@@H](C)c1ccccc1 | –
26 (≈ 52.9 µM) | 41.3 | 5.1 | – | – | CCNC(=O)c1cc2c(-c3cc(C(C)(C)O)ccc3Oc3c(C)cc(F)cc3C)cn(C)c(=O)c2[nH]1 [ABBV-744] | CLint [8]: 5.1 mL/min/g
– | 12 | 3.3 | – | 56 (≈ 146 µM) | CC[C@@H](c1ccccc1)n1nc(C(=O)NC)cc1C(=O)N[C@H]1[C@@H]2C[C@@H](O)C[C@@H]21 | –
– | 43.5 | 3.7 | ≥ 137 | – | CCNC(=O)c1cc(C(=O)NC)nn1[C@@H](C)c1ccccc1 | –
